Laboratory results taken from ChEMBL document CHEMBL3885881, “DrugMatrix”.

Organism: Rattus norvegicus
Test: DrugMatrix - Regimen: Daily Repeat
Type: toxicity, organism-based, Sprague-Dawley
Set-up: regimen Daily Repeat, gender Male, age 6-8 weeks
Conditions: in vivo, ip, 0 mg/kg, route intraperitoneal, dose level Control, vehicle 100 % SALINE; for ABSOLUTE BASOPHIL / ABSOLUTE EOSINOPHIL / ABSOLUTE LYMPHOCYTE / ABSOLUTE MONOCYTE / ABSOLUTE SEGMENTED NEUTROPHIL / BASOPHIL / EOSINOPHIL / ERYTHROCYTE COUNT / HEMATOCRIT / HEMOGLOBIN / LEUKOCYTE COUNT / LYMPHOCYTE / MEAN CORPUSCULAR HEMOGLOBIN / MEAN CORPUSCULAR HEMOGLOBIN CONCENTRATION / MEAN CORPUSCULAR VOLUME / MONOCYTE / NEUTROPHIL / PLATELET COUNT: tissue Blood
[1] = 120 h, tissue Plasma, time 5 day
[2] = […], tissue Plasma, time 14 day
[3] = […], tissue Plasma, time 28 day

CARBOPLATIN was tested, and the ABSOLUTE BASOPHIL (120 h, time 5 day) was 32 cells/µL, the ABSOLUTE EOSINOPHIL (120 h, time 5 day) was 110 cells/µL and the ABSOLUTE LYMPHOCYTE (120 h, time 5 day) was 6630 cells/µL. It also gave an ABSOLUTE MONOCYTE (120 h, time 5 day) of 140 cells/µL, an ABSOLUTE SEGMENTED NEUTROPHIL (120 h, time 5 day) of 1170 cells/µL and a BASOPHIL (120 h, time 5 day) of 0.38%. The EOSINOPHIL (120 h, time 5 day) was 1.28%, the “ERYTHROCYTE COUNT” value (120 h, time 5 day) was 7.45 x10E6/uL and the HEMATOCRIT (120 h, time 5 day) was 45.74%. For the same sequence, the HEMOGLOBIN (120 h, time 5 day) was 14.72 G/DL, the “LEUKOCYTE COUNT” value (120 h, time 5 day) was 8.11 x10E3/uL and the LYMPHOCYTE (120 h, time 5 day) was 81.3%. The “MEAN CORPUSCULAR HEMOGLOBIN” value (120 h, time 5 day) was 19.76 pg, the “MEAN CORPUSCULAR HEMOGLOBIN CONCENTRATION” value (120 h, time 5 day) was 32.16 G/DL and the “MEAN CORPUSCULAR VOLUME” value (120 h, time 5 day) was 61.38 fL. For the same sequence, the MONOCYTE (120 h, time 5 day) was 1.76%, the NEUTROPHIL (120 h, time 5 day) was 14.9% and the “PLATELET COUNT” value (120 h, time 5 day) was 1322.4 x10E3/uL. The “ALANINE AMINOTRANSFERASE” value [1] was 25.8 u/L, the ALBUMIN [1] was 3.64 G/DL and the “ASPARTATE AMINOTRANSFERASE” value [1] was 81.4 u/L. For the same sequence, the “BLOOD UREA NITROGEN” value [1] was 14.4 mg/dL, the CHOLESTEROL [1] was 69.2 mg/dL and the “CREATINE PHOSPHOKINASE” value [1] was 303.2 u/L. The CREATININE [1] was 0.56 mg/dL, the GLUCOSE [1] was 125.4 mg/dL and the “LACTATE DEHYDROGENASE” value [1] was 105.4 u/L. It also gave an LIPASE [1] of 22.4 u/L, a POTASSIUM [1] of 5.52 MEQ/L and an SODIUM [1] of 147 MEQ/L. For the same sequence, the “TOTAL BILIRUBIN” value [1] was 0.2 mg/dL, the “TOTAL PROTEIN” value [1] was 6.1 G/DL and the “URIC ACID” value [1] was 1.06 mg/dL. It also gave an ABSOLUTE BASOPHIL ([…], time 14 day) of 130 cells/µL, an ABSOLUTE EOSINOPHIL ([…], time 14 day) of 140 cells/µL and an ABSOLUTE LYMPHOCYTE ([…], time 14 day) of 13500 cells/µL. For the same sequence, the ABSOLUTE MONOCYTE ([…], time 14 day) was 400 cells/µL, the ABSOLUTE SEGMENTED NEUTROPHIL ([…], time 14 day) was 2330 cells/µL and the BASOPHIL ([…], time 14 day) was 0.72%. For the same sequence, the EOSINOPHIL ([…], time 14 day) was 0.86%, the “ERYTHROCYTE COUNT” value ([…], time 14 day) was 7.74 x10E6/uL and the HEMATOCRIT ([…], time 14 day) was 45.98%. The “LEUKOCYTE COUNT” value ([…], time 14 day) was 16.61 x10E3/uL, the LYMPHOCYTE ([…], time 14 day) was 81.34% and the “MEAN CORPUSCULAR HEMOGLOBIN” value ([…], time 14 day) was 18 pg. For the same sequence, the “MEAN CORPUSCULAR HEMOGLOBIN CONCENTRATION” value ([…], time 14 day) was 30.22 G/DL, the “MEAN CORPUSCULAR VOLUME” value ([…], time 14 day) was 59.4 fL and the MONOCYTE ([…], time 14 day) was 2.46%. The NEUTROPHIL ([…], time 14 day) was 14.14%, the “PLATELET COUNT” value ([…], time 14 day) was 1445.5 x10E3/uL and the ABSOLUTE BASOPHIL ([…], time 28 day) was 91 cells/µL. For the same sequence, the ABSOLUTE EOSINOPHIL ([…], time 28 day) was 110 cells/µL, the ABSOLUTE LYMPHOCYTE ([…], time 28 day) was 9910 cells/µL and the ABSOLUTE MONOCYTE ([…], time 28 day) was 210 cells/µL. The ABSOLUTE SEGMENTED NEUTROPHIL ([…], time 28 day) was 1560 cells/µL, the BASOPHIL ([…], time 28 day) was 0.77% and the EOSINOPHIL ([…], time 28 day) was 0.92%. For the same sequence, the “ERYTHROCYTE COUNT” value ([…], time 28 day) was 8.21 x10E6/uL, the HEMATOCRIT ([…], time 28 day) was 47.53% and the HEMOGLOBIN ([…], time 28 day) was 15.65 G/DL. The “LEUKOCYTE COUNT” value ([…], time 28 day) was 11.91 x10E3/uL, the LYMPHOCYTE ([…], time 28 day) was 83.34% and the “MEAN CORPUSCULAR HEMOGLOBIN” value ([…], time 28 day) was 19.07 pg. The “MEAN CORPUSCULAR HEMOGLOBIN CONCENTRATION” value ([…], time 28 day) was 32.93 G/DL, the “MEAN CORPUSCULAR VOLUME” value ([…], time 28 day) was 57.9 fL and the MONOCYTE ([…], time 28 day) was 1.68%. For the same sequence, the NEUTROPHIL ([…], time 28 day) was 12.97%, the “PLATELET COUNT” value ([…], time 28 day) was 1323.8 x10E3/uL and the “ALANINE AMINOTRANSFERASE” value [2] was 31.6 u/L. The ALBUMIN [2] was 3.66 G/DL, the “ALKALINE PHOSPHATASE” value [2] was 228.6 u/L and the “ASPARTATE AMINOTRANSFERASE” value [2] was 79.6 u/L. The “BLOOD UREA NITROGEN” value [2] was 11.2 mg/dL, the CHLORIDE [2] was 107 MEQ/L and the CHOLESTEROL [2] was 57 mg/dL. For the same sequence, the CREATININE [2] was 0.5 mg/dL, the GLUCOSE [2] was 124.4 mg/dL and the “LACTATE DEHYDROGENASE” value [2] was 106.4 u/L. It also gave an LIPASE [2] of 24.4 u/L, a PHOSPHORUS [2] of 10.52 mg/dL and a POTASSIUM [2] of 6.34 MEQ/L. The SODIUM [2] was 149.2 MEQ/L, the “TOTAL BILIRUBIN” value [2] was 0.2 mg/dL and the “TOTAL PROTEIN” value [2] was 6.48 G/DL. For the same sequence, the “URIC ACID” value [2] was 0.94 mg/dL, the “ALANINE AMINOTRANSFERASE” value [3] was 30 u/L and the ALBUMIN [3] was 3.71 G/DL. For the same sequence, the “ALKALINE PHOSPHATASE” value [3] was 186.8 u/L, the “ASPARTATE AMINOTRANSFERASE” value [3] was 78.2 u/L and the “BLOOD UREA NITROGEN” value [3] was 14.2 mg/dL. For the same sequence, the CHOLESTEROL [3] was 44.9 mg/dL, the “CREATINE PHOSPHOKINASE” value [3] was 334.3 u/L and the CREATININE [3] was 0.6 mg/dL. For the same sequence, the GLUCOSE [3] was 147.2 mg/dL, the “LACTATE DEHYDROGENASE” value [3] was 123.1 u/L and the LIPASE [3] was 9.6 u/L. The PHOSPHORUS [3] was 10.01 mg/dL, the POTASSIUM [3] was 6.57 MEQ/L and the SODIUM [3] was 149.5 MEQ/L. The “TOTAL BILIRUBIN” value [3] was 0.21 mg/dL and the “TOTAL PROTEIN” value [3] was 6.66 G/DL.
